Reference: the CheMixHub viscosity set

Experiment: xn = mol fraction of the nth substance listed

CC(=O)OCCC(C)C + Clc1ccccc1
viscosity [mPa·s], 101 kPa
Conditions | 298.15 K | 303.15 K | 308.15 K | 313.15 K
x1 = 0.0458 | 0.75 | – | 0.678 | –
x1 = 0.0705 | – | 0.718 | – | 0.634
x1 = 0.1467 | – | 0.729 | – | 0.643
x1 = 0.1506 | 0.741 | – | 0.676 | –
x1 = 0.2271 | – | 0.74 | – | 0.654
x1 = 0.251 | 0.735 | – | 0.677 | –
x1 = 0.3141 | – | 0.751 | – | 0.662
x1 = 0.3515 | 0.732 | – | 0.681 | –
x1 = 0.4073 | – | 0.758 | – | 0.669
x1 = 0.4513 | 0.731 | – | 0.684 | –
x1 = 0.4998 | 0.732 | – | 0.687 | –
x1 = 0.5006 | – | 0.767 | – | 0.675
x1 = 0.5511 | 0.734 | – | 0.691 | –
x1 = 0.6085 | – | 0.768 | – | 0.674
x1 = 0.6517 | 0.739 | – | 0.699 | –
x1 = 0.728 | – | 0.766 | – | 0.671
x1 = 0.7519 | 0.747 | – | 0.71 | –
x1 = 0.8507 | 0.758 | – | 0.723 | –
x1 = 0.8573 | – | 0.758 | – | 0.661
x1 = 0.9448 | 0.772 | – | 0.737 | –

CCOP(OCC)OCC + N#Cc1ccccc1
298.15 K, 101 kPa
Conditions | viscosity [mPa·s]
x1 = 0.2 | 1.089
x1 = 0.4 | 0.963
x1 = 0.6 | 0.848
x1 = 0.8 | 0.781

CC(=O)Nc1ccccc1 + Nc1ccccc1
viscosity [mPa·s], 101.3 kPa
Conditions | 298.15 K | 323.15 K
x1 = 0.108 | 46.7 | 23.6
x1 = 0.195 | 113.4 | 42.5

CC(=O)O.OCCNCCO + O
viscosity [mPa·s], 100 kPa
Conditions | x1 = 0.0126 | x2 = 0.1586 | x2 = 0.2897 | x2 = 0.4528 | x2 = 0.5293 | x2 = 0.6932 | x2 = 0.8573 | x2 = 0.9194 | x2 = 0.9549
293.15 K | 1.37 | 3625 | 2208 | 1042 | 658.3 | 162.6 | 19.25 | 6.362 | 3.027
303.15 K | 1.099 | 1492 | 946.1 | 473.9 | 310.7 | 87.19 | 12.67 | 4.584 | 2.301
313.15 K | 0.9188 | 686.5 | 452 | 239.3 | 162.4 | 51.05 | 8.836 | 3.442 | 1.818
323.15 K | 0.7821 | 346.1 | 236.3 | 131.8 | 92.22 | 32.12 | 6.455 | 2.69 | 1.484

CC(C)COCCO + O
298.15 K, 101 kPa
Conditions | viscosity [mPa·s]
x1 = 0.0037 | 0.9
x1 = 0.016 | 1.2
x1 = 0.0469 | 2.4
x1 = 0.0611 | 2.7
x1 = 0.11 | 3.65
x1 = 0.177 | 4.27
x1 = 0.263 | 4.4
x1 = 0.764 | 3.7

CCCC(=O)[O-].[NH3+]CCO + O
viscosity [mPa·s], 101 kPa
Conditions | x1 = 0.0063 | x1 = 0.0132 | x2 = 0.8927 | x2 = 0.9254 | x2 = 0.9508 | x2 = 0.9707 | x2 = 0.9793
293.15 K | 1.38 | 1.662 | 9.498 | 5.73 | 3.702 | 2.46 | 1.98
298.15 K | 1.248 | 1.476 | 7.89 | 4.836 | 3.21 | 2.145 | 1.776
303.15 K | 1.104 | 1.32 | 6.6 | 4.182 | 2.814 | 1.878 | 1.59

N[C@@H](Cc1c[nH]c2ccccc12)C(=O)O + O
303 K, 100 kPa
Conditions | viscosity [mPa·s]
x1 = 0.087 | 0.934
x1 = 0.0954 | 1
x1 = 0.0971 | 1.018
x1 = 0.0979 | 1.055
x1 = 0.0983 | 1.077
x1 = 0.0985 | 1.101

O=P(O)(O)O + O
Conditions | viscosity [mPa·s]
293.15 K, 101 kPa, x1 = 0.404 | 27.7
293.15 K, 101 kPa, x1 = 0.441 | 32.01
293.15 K, 101 kPa, x1 = 0.504 | 46.83
293.15 K, 101 kPa, x1 = 0.537 | 54.26
293.15 K, 101 kPa, x1 = 0.574 | 64.47
293.15 K, 101 kPa, x1 = 0.603 | 69.15
293.15 K, 101 kPa, x1 = 0.616 | 75.28
293.15 K, 101 kPa, x1 = 0.626 | 79.2
298 K, 101.33 kPa, x1 = 0.0038 | 0.939
298 K, 101.33 kPa, x1 = 0.007 | 0.979
298 K, 101.33 kPa, x1 = 0.014 | 1.075
298 K, 101.33 kPa, x1 = 0.0215 | 1.191
298 K, 101.33 kPa, x1 = 0.029 | 1.307
298 K, 101.33 kPa, x1 = 0.0376 | 1.457
298 K, 101.33 kPa, x1 = 0.0462 | 1.62
298 K, 101.33 kPa, x1 = 0.0537 | 1.786
298 K, 101.33 kPa, x1 = 0.0604 | 1.955
298 K, 101.33 kPa, x1 = 0.0714 | 2.204
298 K, 101.33 kPa, x1 = 0.0832 | 2.521
298 K, 101.33 kPa, x1 = 0.0925 | 2.842
298 K, 101.33 kPa, x1 = 0.1 | 3.033
298 K, 101.33 kPa, x1 = 0.106 | 3.198
298 K, 101.33 kPa, x1 = 0.111 | 3.378
298 K, 101.33 kPa, x1 = 0.151 | 4.902
298 K, 101.33 kPa, x1 = 0.2128 | 7.936
298 K, 101.33 kPa, x1 = 0.2654 | 11.32
298 K, 101.33 kPa, x1 = 0.311 | 14.88
298 K, 101.33 kPa, x1 = 0.3511 | 18.8
298 K, 101.33 kPa, x1 = 0.3871 | 22.93
298 K, 101.33 kPa, x1 = 0.422 | 27.24
298 K, 101.33 kPa, x1 = 0.4737 | 35.19
298 K, 101.33 kPa, x1 = 0.5388 | 46.3
298 K, 101.33 kPa, x1 = 0.6043 | 59.76
298.15 K, 100 kPa, x2 = 0.333 | 70.64
298.15 K, 101 kPa, x1 = 0.0018 | 0.9162
298.15 K, 101 kPa, x1 = 0.0054 | 0.9543
298.15 K, 101 kPa, x1 = 0.0089 | 1
298.15 K, 101 kPa, x1 = 0.012 | 1.054
298.15 K, 101 kPa, x1 = 0.016 | 1.089
298.15 K, 101 kPa, x1 = 0.404 | 24.33
298.15 K, 101 kPa, x1 = 0.441 | 27.61
298.15 K, 101 kPa, x1 = 0.504 | 37.59
298.15 K, 101 kPa, x1 = 0.537 | 43.17
298.15 K, 101 kPa, x1 = 0.574 | 50.35
298.15 K, 101 kPa, x1 = 0.603 | 54.12
298.15 K, 101 kPa, x1 = 0.616 | 60.3
298.15 K, 101 kPa, x1 = 0.626 | 64.75
303.15 K, 100 kPa, x2 = 0.333 | 55.6
303.15 K, 101 kPa, x1 = 0.0018 | 0.8163
303.15 K, 101 kPa, x1 = 0.0054 | 0.8526
303.15 K, 101 kPa, x1 = 0.0089 | 0.8928
303.15 K, 101 kPa, x1 = 0.012 | 0.9281
303.15 K, 101 kPa, x1 = 0.016 | 0.9679
303.15 K, 101 kPa, x1 = 0.404 | 20.3
303.15 K, 101 kPa, x1 = 0.441 | 23.66
303.15 K, 101 kPa, x1 = 0.504 | 30.35
303.15 K, 101 kPa, x1 = 0.537 | 34.61
303.15 K, 101 kPa, x1 = 0.574 | 38.68
303.15 K, 101 kPa, x1 = 0.603 | 43.03
303.15 K, 101 kPa, x1 = 0.616 | 46.81
303.15 K, 101 kPa, x1 = 0.626 | 52.57
308.15 K, 100 kPa, x2 = 0.333 | 46.73
308.15 K, 101 kPa, x1 = 0.0018 | 0.7331
308.15 K, 101 kPa, x1 = 0.0054 | 0.763
308.15 K, 101 kPa, x1 = 0.0089 | 0.794
308.15 K, 101 kPa, x1 = 0.012 | 0.84
308.15 K, 101 kPa, x1 = 0.016 | 0.8774
308.15 K, 101 kPa, x1 = 0.404 | 17.53
308.15 K, 101 kPa, x1 = 0.441 | 19.85
308.15 K, 101 kPa, x1 = 0.504 | 24.19
308.15 K, 101 kPa, x1 = 0.537 | 27.64
308.15 K, 101 kPa, x1 = 0.574 | 31.89
308.15 K, 101 kPa, x1 = 0.603 | 33.9
308.15 K, 101 kPa, x1 = 0.616 | 37.64
308.15 K, 101 kPa, x1 = 0.626 | 41.08
313.15 K, 100 kPa, x2 = 0.333 | 39.76
313.15 K, 101 kPa, x1 = 0.404 | 14.63
313.15 K, 101 kPa, x1 = 0.441 | 17.7
313.15 K, 101 kPa, x1 = 0.504 | 21.48
313.15 K, 101 kPa, x1 = 0.537 | 22.64
313.15 K, 101 kPa, x1 = 0.574 | 25.3
313.15 K, 101 kPa, x1 = 0.603 | 27.25
313.15 K, 101 kPa, x1 = 0.616 | 29.46
313.15 K, 101 kPa, x1 = 0.626 | 32.1
318.15 K, 100 kPa, x2 = 0.333 | 32.46
323.15 K, 100 kPa, x2 = 0.333 | 27.57

OCCC(O)CO (stereo not drawn) + O
viscosity [mPa·s], 101 kPa
Conditions | 293.15 K | 298.15 K | 303.15 K | 308.15 K | 313.15 K | 318.15 K | 323.15 K
x1 = 0.005 | 1.089 | 0.984 | 0.889 | 0.798 | 0.7 | 0.656 | 0.595
x1 = 0.01 | 1.271 | 1.096 | 0.968 | 0.863 | 0.769 | 0.703 | 0.626
x1 = 0.015 | 1.46 | 1.193 | 1.067 | 0.942 | 0.853 | 0.77 | 0.678
x1 = 0.02 | 1.617 | 1.328 | 1.195 | 1.058 | 0.937 | 0.857 | 0.732
